Measurements: PubChem BioAssay (NCI)
Several values for one entry are separate records, joined by “and”; a condition that tells them apart may be missing. Equal values may be shown once.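 Following 48 hours of exposure in 96-well plates, responses at five concentrations were used to interpolate endpoints linearly. The concentration for 50% growth inhibition is given as GI50. TGI: concentration producing complete growth inhibition.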

Experiments:
Experiment in all cases: NCI tumour cell line growth inhibition, 48 h
[1] = system: SK-MEL-5 melanoma
[2] = system: A549 NSCLC
[3] = system: HCC-2998 colon
[4] = system: OVCAR-4 ovarian
[5] = system: NCI/ADR-RES ovarian
[6] = system: RPMI-8226 leukemia
[7] = system: MDA-MB-435
[8] = system: PC-3 prostate
[9] = system: COLO 205 colon
[10] = system: SF-539 CNS

Compound	GI50 [1] [µM]	TGI [1]	GI50 [2] [µM]	TGI [2] [µM]	GI50 [3] [µM]	TGI [3] [µM]	GI50 [4] [µM]	TGI [4] [µM]	GI50 [5]	TGI [5] [µM]	GI50 [6]	TGI [6] [µM]	GI50 [7] [µM]	TGI [7]	GI50 [8]	TGI [8]	GI50 [9]	TGI [9]	GI50 [10] [µM]	TGI [10] [µM]
C[C@@H]1CC[C@@H]2[C@@H]1[C@H](OC(=O)/C=C/C1CCCCC1)[C@]1(C3CCCCC3)C[C@@H](OC(=O)CO)[C@@]2(C)O1	14	26.6 µM	14.2	27.1	16	29.6	13.1	26.6	0.579 µM	18.4	15.2 µM	34.5	15.5	31 µM	11.5 µM	24.3 µM	15.4 µM	30 µM	14.3	27.9
c1ccc2c(N=NSc3ncnc4nc[nH]c34)c3ccccc3nc2c1	1.16	2.39 µM	0.648	3.89	1.49	3.77	1.63	10.5	1.19 µM	8.39	2.42 µM	6.82	1.97	6.12 µM	1.63 µM	8.04 µM	0.428 µM	1.76 µM	1.1	3.55
NC(=O)NNC/C(Cl)=C(\Cl)C(=O)O		> 100 µM		> 100		> 100		> 100				> 100						> 100 µM		> 100
N#C/C(=C\c1ccc[nH]1)c1cc(-c2ccc(Cl)cc2)nn1-c1ccccc1	6.47	19.4 µM	6.92	> 64.7	3.5	12.4	1.73	> 56.3	3.93 µM	> 31.4	2.48 µM	9.77	2.7	13.2 µM	3.12 µM	23.1 µM	3.16 µM	8.17 µM	6.05	18.9
Nc1nc(N)c2c(ccc3c2ccn3Cc2cccc([N+](=O)[O-])c2)n1	0.0744	2.15 µM and 1.45 µM	0.00496	1.57	0.049	1.56	1.15	2.59	0.0775 µM and 0.0835 µM	18.6	0.0585 µM and 0.0185 µM		0.0217	2.4 µM and 2.59 µM	0.163 µM and 0.0201 µM	2.74 µM and 1.74 µM	1.1 µM and 0.15 µM	4.08 µM and 1.79 µM	0.0454	1.64
O=C(Nc1ccc(Cl)c(Cl)c1)c1ccc(NC2=C(Cl)C(=O)N(Cc3ccccc3)C2=O)cc1	5.02	17.9 µM	11.9	27.3			17.2	42.1	5.04 µM	17	2.02 µM	4.29	5.62	19.5 µM	3.55 µM	13.4 µM	20 µM	66.6 µM	16	30.1
CC(NNC(=S)N1CCN(c2ccccn2)CC1)c1nccc2ccccc12 (centres undefined)		12.3 µM		13.2		14.7		19.2		12				17 µM		14.9 µM		5.93 µM		6.43
COC(=O)C1=C(C)NC(=S)NC1c1ccc(N(CCCl)CCCl)cc1Cl (centres undefined)		20.1 µM		> 58.7				> 84.1		> 100		> 4.64		37.4 µM		> 82.8 µM		59.7 µM		> 100
CCO/C=C\C12CCCC1NC(c1ccccc1)(c1ccccc1)O2 (centres undefined)		31.1 µM		> 100				> 100												66
CC1=C(CCC(C)CO)O[C@H]2C[C@H]3[C@@H]4CC[C@H]5C[C@@H](O)CC[C@]5(C)[C@H]4CC(=O)[C@]3(C)[C@@H]12 (some centres undefined)		23.5 µM		55.7				> 82.2		40.6		13.8		54.8 µM		21.2 µM		27.7 µM		72.7
CN(C(=O)C(C)(C)C)c1ccccc1I(=O)=O	74.1	> 100 µM	> 100	> 100	> 100	> 100	> 100	> 100	> 100 µM	> 100	18.8 µM	66	> 100	> 100 µM			60.7 µM	> 100 µM	> 100	> 100
CCN1CCN(C(=O)[C@]23CC[C@@H](C)[C@H](C)[C@@H]2C2=CC[C@@H]4[C@@]5(C)CCC(=O)C(C)(C)[C@@H]5CC[C@@]4(C)[C@]2(C)CC3)CC1	0.888	1.6 µM	1.47	5.98	0.922	1.82	1.26	4.74	1.08 µM	3.24			1.05	2.3 µM	0.875 µM	3.17 µM	1.02 µM	2.37 µM	0.843	1.54
OC1OCC(COc2cc(Cl)c(Cl)cc2Cl)OC1O (centres undefined)		> 100 µM		> 100		> 100		> 100				77.9						> 100 µM		> 100
COc1cc(/C=C2\[C@@H]3NC(Cc4c(OC)c(C)c(OC)c(OC)c43)C(=O)N2Cc2ccccc2)c(OC)c(C)c1OC		> 100 µM		> 100		> 100		89.8				91.8						28.3 µM		> 100
C=CCc1c(O)c(C(=O)/C=C/c2ccc(Cl)cc2)c(OC)c2ccoc12	2.07	5.18 µM	4.7	18.2	1.79	3.26	2.77	13.1	2.23 µM	5.86			2.06	4.53 µM	3.81 µM	15.6 µM	4.44 µM	15.5 µM	1.79	3.85
C[C@]12CC[C@H]3[C@@H](CC[C@]4(O)C[C@@H](O)CC[C@]34C=O)[C@@]1(O)CC[C@@H]2C1=CC(=O)OC1		1.16 µM		0.408		7.13		2.33		1.92				1.83 µM		4.56 µM		6.7 µM		0.967
CC1C(c2ccccc2)N(C)C(c2ccccc2)C(C)C1(O)c1ccccc1 (centres undefined)		> 100 µM		> 100		> 100		> 100										58.7 µM		> 100
O=[N+]([O-])c1ccc2c(c1)C(N1CCN(CCO)CC1)Cc1ccc(F)cc1S2 (centres undefined)		3.48 µM		26.3		8.83		33.5		25.4						15.4 µM		28.7 µM		22.6
C[C@]12CCC(=O)C=C1C[C@@H](O)[C@@H]1[C@@H]2CC[C@@]2(C)[C@H]1CC[C@]2(C)O		> 100 µM		> 100		> 100		> 100		> 100		> 100		> 100 µM		> 100 µM		> 100 µM		
CCOC(=O)N1CCC(N=C2CSc3nnc(-c4cc(C(F)(F)F)cc(C(F)(F)F)c4)n3N2)CC1	1.61	3 µM			2.25	4.78	1.86	5.49	2.58 µM	8.08	2.54 µM	7.11	1.58	3 µM	2.2 µM	6.27 µM	2.17 µM	3.93 µM	2.06	3.88

Compound	GI50 [1] [µM]	TGI [1]	GI50 [2] [µM]	TGI [2] [µM]	GI50 [3] [µM]	TGI [3] [µM]	GI50 [4] [µM]	TGI [4] [µM]	GI50 [5]	TGI [5] [µM]	GI50 [6]	TGI [6] [µM]	GI50 [7] [µM]	TGI [7]	GI50 [8]	TGI [8]	GI50 [9]	TGI [9]	GI50 [10] [µM]	TGI [10] [µM]
O=C(NC1CCC[C@H]1OC(=O)c1ccccc1)c1ccccc1 (some centres undefined)		> 100 µM		> 100				> 100												> 100
CC12CCC(C1)C(C)(C)C2OC(=O)c1ccccc1N (centres undefined)		31 µM		29.2		27.9				31.7		16.9		31.2 µM		27.3 µM		29 µM		33.7
COC(=O)CC[C@@H](C)[C@H]1CC[C@H]2[C@@H]3CC[C@@H]4C[C@H](O)CC[C@]4(C)[C@H]3CC[C@]12C		31 µM		36.6				36.5		43.6		> 100		33 µM		32.2 µM		35.4 µM		36
CC1(c2ccc(F)cc2)C2C(=O)NC(=O)C1C(=O)NC2=O (centres undefined)		> 100 µM		> 100		> 100		> 100				> 100						> 100 µM		> 100
C=CCC1(CN(C)C)CC/C(=C\c2ccc3c(c2)OCO3)C1=O (centres undefined)		60.5 µM		> 100		> 100		> 100				59.4						54.1 µM		> 100
Nc1nc2cc(Cl)ccc2n1N		> 100 µM		> 100		> 100						> 100		> 100 µM		> 100 µM		> 100 µM		> 100
CCOC(=O)C1=C(Nc2ccc(OC)cc2)C(N)=NC1=N	0.57	55.8 µM	3.73	> 100	3.94	> 100			3.38 µM	> 100			0.336	1.5 µM	3.26 µM	> 100 µM	3.07 µM	10.1 µM	2.15	6.27
CCC(O)CCCCCCCCCCCCCCC(=O)O (centres undefined)		40.6 µM		> 100				> 100				> 100						> 100 µM		> 100
Cc1ccc(/C=C2\CCCCC2=O)cc1		> 100 µM		> 100				> 100										> 100 µM		> 100
COc1ccc(N=NC2=C(O)CCC2=O)cc1		> 100 µM		> 100		> 100		> 100										> 100 µM		> 100
CC(C)N1CC2CC(CN(C(=O)c3ccc(Cl)cc3)C2)C1		> 100 µM		> 100				> 100				> 100						> 100 µM		> 100
NC1CC(=O)c2c(-c3cccs3)sc(-c3cccs3)c21 (centres undefined)	28	> 100 µM	53.2	> 100			43	> 100	29.5 µM	> 100	12.3 µM	49.7	38.8	> 100 µM	30.8 µM	> 100 µM	21.5 µM	63.8 µM	21.3	47.6
CCCCCCCCCCCCCCNCC(OC)OC		29.3 µM		35.3		33.4		30.1										28.3 µM		30.9
CCCCCCC(=O)NC1=C(N2CC2)C(=O)C(NC(=O)CCCCCC)=C(N2CC2)C1=O			2.79	> 100			3.11	> 100	3.18 µM	> 100			1.56	3.11 µM	1.61 µM	> 100 µM			2.37	> 100
Cc1cc(N(CCC#N)S(=O)(=O)c2ccccc2)ccc1C=Nc1ccc(C(=O)O)cc1		24.3 µM		52.5		27.5		18.6				> 21.2		> 100 µM		> 100 µM		10.1 µM		30.7
O=C(Nc1ccc(Br)c2ccccc12)c1ccc2ccccc2c1O		3.78 µM		11		20.9		> 100		12.9						6.21 µM		5.49 µM		24.9
CC(=O)OC1CC2(C)C(=CC1C1SCCS1)CCC1C2CCC2(C)C(OC(C)=O)CCC12 (centres undefined)		> 100 µM		> 100				> 100		> 100		> 100		> 100 µM		> 100 µM		> 100 µM		> 100
O=C1c2ccccc2C(=O)N1CC#CCO		> 100 µM		> 100				> 100												> 100
Cc1cc(-c2ccccc2)nc(Nc2cc3ccccc3[nH]2)n1		> 100 µM		> 100		> 100		> 100				> 100						> 100 µM		> 100
